Experimental data taken from patent US10030027B2, “Soluble guanylate cyclase stimulators” (MERCK SHARP & DOHME CORP., priority 2015, dated 2018).

Columns and labels:
sGC α1/β1 heterodimer = sGC α1/β1 heterodimer (Homo sapiens (Human), UniProt Q02108+Q02153); assay: Cell-based sGC functional assay (cyclic GMP assay for sGC activator: CASA assay); details: CHO-K1/sGC cells; for Emax: CHO-K1, activity expressed as percentage of compound A (standard), read-out: % Activation; for EC50: inflection point, 4P fit, read-out: IP
Method in brief: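 CHO-K1 cells stably expressing human sGC α1/β1 were pre-incubated 30 min at 25° C with or without 1 μM DETA-NO, then exposed to compound for 1 hr at 37° C with 0.5 mM IBMX and 2.5% DMSO final. Intracellular cGMP was measured by HTRF, expressed as % of reference sGC-HDA maximum; inflection point and maximum fold induction came from 4-parameter fits.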

[1] = biological target: human recombinant sGC enzyme (Homo sapiens (Human), UniProt Q02108+Q02153); assay: Size Exclusion Chromatography (SEC) competition binding assay using [3H] Ex-77B as the radioligand; details: [3H] Ex-77B radioligand, 24 hours at 37° C.
Method in brief: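 Recombinant human sGC binding measured by competition against tritiated Ex-77B radioligand, with non-specific binding defined by 1 μM unlabeled Ex-77B.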

`C[C@@]1(c2ccc(CCC(=O)O)cc2)C(=O)Nc2nc(-c3nn(CCCC(F)(F)F)c4ncc(F)cc34)nc(N)c21` [Example 18B, (S)-3-(4-{4-amino-2-[5-fluoro-1-(4,4,4-trifluorobutyl)-1H-pyrazolo[3,4-b]pyridin-3-yl]-5-methyl-6-oxo-6,7-dihydro-5H-pyrrolo[2,3-d]pyrimidin-5-yl}phenyl)propanoic acid] was tested, and the Emax (sGC α1/β1 heterodimer) was 95%, the EC50 (sGC α1/β1 heterodimer) was 2500 nM and the Ki [1] was 0.92 nM.

In the case of `CC1(c2nn(CC(=O)O)c(=O)o2)C(=O)Nc2nc(-c3nn(CCC(F)(F)C(F)(F)F)c4cc(Cl)ccc34)nc(N)c21` (centres unmarked) [Example 98A, [5-{4-Amino-2-[6-chloro-1-(3,3,4,4,4-pentafluorobutyl)-1H-indazol-3-yl]-5-methyl-6-oxo-6,7-dihydro-5H-pyrrolo[2,3-d]pyrimidin-5-yl}-2-oxo-1,3,4-oxadiazol-3(2H)-yl]acetic acid], the Emax (sGC α1/β1 heterodimer) is reported as 83%, the EC50 (sGC α1/β1 heterodimer) is reported as 254 nM and the Ki [1] is reported as 0.395 nM.

Compound `CC(C)(CCc1coc(C2(C)C(=O)Nc3nc(-c4nn(Cc5ccccc5F)c5cc(F)ccc45)nc(N)c32)n1)C(=O)O` (centres unmarked) [Example 193B, 4-(2-{4-amino-2-[6-fluoro-1-(2-fluorobenzyl)-1H-indazol-3-yl]-5-methyl-6-oxo-6,7-dihydro-5H-pyrrolo[2,3-d]pyrimidin-5-yl}-1,3-oxazol-4-yl)-2,2-dimethyl-butanoic acid] has an Emax (sGC α1/β1 heterodimer) of 89.2%, an EC50 (sGC α1/β1 heterodimer) of 69 nM and a Ki [1] of 0.052 nM.

For `CCCCn1nc(-c2nc(N)c3c(n2)NC(=O)C3(C)c2cn(CC(=O)O)nn2)c2ccc(Cl)cc21` (centres unmarked) [Example 35B, 2-{4-[4-amino-2-(1-butyl-6-chloro-1H-indazol-3-yl)-5-methyl-6-oxo-6,7-dihydro-5H-pyrrolo[2,3-d]pyrimidin-5-yl]-1H-1,2,3-triazol-1-yl}acetic acid], the Emax (sGC α1/β1 heterodimer) was 102%, the EC50 (sGC α1/β1 heterodimer) was 2790 nM and the Ki [1] was 1.12 nM.

In the case of `CC(C)(Cc1coc(C2(C)C(=O)Nc3nc(-c4nn(CC5CCCCC5)c5ncccc45)nc(N)c32)n1)C(=O)O` (centres unmarked) [Example 152A, 3-(2-{4-amino-2-[1-(cyclohexyl-methyl)-1H-pyrazolo[3,4-b]pyridin-3-yl]-5-methyl-6-oxo-6,7-dihydro-5H-pyrrolo[2,3-d]pyrimidin-5-yl}-1,3-oxazol-4-yl)-2,2-dimethyl-propanoic acid], the Emax (sGC α1/β1 heterodimer) is reported as 118%, the EC50 (sGC α1/β1 heterodimer) is reported as 120 nM and the Ki [1] is reported as 0.031 nM.

For `Cc1ccnc(Cn2nc(-c3nc(N)c4c(n3)NC(=O)C4(C)c3nc(CC(C)(C)C(=O)O)co3)c3ccc(Cl)cc32)c1F` (centres unmarked) [Example 215A, 3-(2-{4-amino-2-[6-chloro-1-((3-fluoro-4-methyl-pyridin-2-yl)methyl)-1H-indazol-3-yl]-5-methyl-6-oxo-6,7-dihydro-5H-pyrrolo[2,3-d]pyrimidin-5-yl} 1,3-oxazol-4-yl)-2,2-dimethyl-propanoic acid], the Emax (sGC α1/β1 heterodimer) was 119%, the EC50 (sGC α1/β1 heterodimer) was 3700 nM and the Ki [1] was 0.189 nM.

For `C[C@@]1(c2nc(CCC(=O)O)cs2)C(=O)Nc2nc(-c3nn(CCCC(F)(F)F)c4ncccc34)nc(N)c21` [Example 88B, (S)-3-(2-{4-amino-5-methyl-6-oxo-2-[1-(4,4,4-trifluorobutyl)-1H-pyrazolo[3,4-b]pyridin-3-yl]-6,7-dihydro-5H-pyrrolo[2,3-d]pyrimidin-5-yl}-1,3-thiazol-4-yl)propanoic acid], the Emax (sGC α1/β1 heterodimer) was 88%, the EC50 (sGC α1/β1 heterodimer) was 1250 nM and the Ki [1] was 0.848 nM.

`CC(C)(C)CCn1nc(-c2nc(N)c3c(n2)NC(=O)C3(C)c2nc(CC(C)(C)C(=O)O)co2)c2ccc(Cl)cc21` (centres unmarked) [Example 208A, 3-(2-{4-amino-2-[6-chloro-1-(3,3-dimethylbutyl)-1H-indazol-3-yl]-5-methyl-6-oxo-6,7-dihydro-5H-pyrrolo[2,3-d]pyrimidin-5-yl}-1,3-oxazol-4-yl)-2,2-dimethyl-propanoic acid] showed an Emax (sGC α1/β1 heterodimer) of 101%, an EC50 (sGC α1/β1 heterodimer) of 453 nM and a Ki [1] of 0.253 nM.

Work on `CC(C)(Cc1nc(C2(C)C(=O)Nc3nc(-c4nn(Cc5ccccc5F)c5cc(Cl)ccc45)nc(N)c32)co1)C(=O)O` (centres unmarked) [Example 128A, 3-(4-{4-amino-2-[6-chloro-1-(2-fluorobenzyl)-1H-indazol-3-yl]-5-methyl-6-oxo-6,7-dihydro-5H-pyrrolo[2,3-d]pyrimidin-5-yl}-1,3-oxazol-2-yl)-2,2-dimethylpropanoic acid] yielded an Emax (sGC α1/β1 heterodimer) of 117%, an EC50 (sGC α1/β1 heterodimer) of 137 nM and a Ki [1] of 0.111 nM.

`CC(C)(Cc1coc(C2(C)C(=O)Nc3nc(-c4nn(CC5CCCC5)c5ncccc45)nc(N)c32)n1)C(=O)O` (centres unmarked) [Example 154A, 3-(2-{4-amino-2-[1-(cyclopentyl-methyl)-1H-pyrazolo[3,4-b]pyridin-3-yl]-5-methyl-6-oxo-6,7-dihydro-5H-pyrrolo[2,3-d]pyrimidin-5-yl}-1,3-oxazol-4-yl)-2,2-dimethyl-propanoic acid] was tested, and the Emax (sGC α1/β1 heterodimer) was 104%, the EC50 (sGC α1/β1 heterodimer) was 577 nM and the Ki [1] was 0.091 nM.

With `Cc1oc(C2(C)C(=O)Nc3nc(-c4nn(Cc5cccc(F)c5)c5cc(F)ccc45)nc(N)c32)nc1CC(C)(C)C(=O)O` (centres unmarked) [Example 198B, 3-(2-{4-amino-2-[6-fluoro-1-(3-fluorobenzyl)-1H-indazol-3-yl]-5-methyl-6-oxo-6,7-dihydro-5H-pyrrolo[2,3-d]pyrimidin-5-yl}-5-methyl-1,3 - oxazol-4-yl)-2,2-dimethyl-propanoic acid] the Emax (sGC α1/β1 heterodimer) was 134%, the EC50 (sGC α1/β1 heterodimer) was 1070 nM and the Ki [1] was 0.107 nM.

`Cc1ccc2c(-c3nc(N)c4c(n3)NC(=O)[C@@]4(C)c3ccc(CCC(=O)O)cc3)nn(Cc3ccc(C)c(F)c3F)c2n1` [Example 25B, (S)-3-(4-{4-amino-2-[1-(2,3-difluoro-4-methylbenzyl)-6-methyl-1H-pyrazolo[3,4-b]pyridin-3-yl]-5-methyl-6-oxo-6,7-dihydro-5H-pyrrolo[2,3-d]pyrimidin-5-yl}phenyl)propanoic acid] was tested, and the Emax (sGC α1/β1 heterodimer) was 147%, the EC50 (sGC α1/β1 heterodimer) was 201 nM and the Ki [1] was 0.262 nM.

In the case of `Cc1ccc(F)c(Cn2nc(-c3nc(N)c4c(n3)NC(=O)C4(C)c3nc(CC(C)(C)C(=O)O)co3)c3ccc(Cl)cc32)c1` (centres unmarked) [Example 213A, 3-(2-{4-amino-2-[6-chloro-1-(2-fluoro-5-methyl-benzyl)-1H-indazol-3-yl]-5-methyl-6-oxo-6,7-dihydro-5H-pyrrolo[2,3-d]pyrimidin-5-yl} 1,3-oxazol-4-yl)-2,2-dimethyl-propanoic acid], the Emax (sGC α1/β1 heterodimer) is reported as 94.9%, the EC50 (sGC α1/β1 heterodimer) is reported as 839 nM and the Ki [1] is reported as 0.123 nM.

In the case of `CC(C)(Cc1csc([C@]2(C)C(=O)Nc3nc(-c4nn(CC5CCCCO5)c5cc(F)ccc45)nc(N)c32)n1)C(=O)O` (single isomer, unassigned) [Example 133AA], the Emax (sGC α1/β1 heterodimer) is reported as 104%, the EC50 (sGC α1/β1 heterodimer) is reported as 657 nM and the Ki [1] is reported as 0.513 nM.

`CC1(c2ccc(CCS(=O)(=O)O)cc2)C(=O)Nc2nc(-c3nn(Cc4ccccc4F)c4cc(Cl)ccc34)nc(N)c21` (single isomer, unassigned) [Example 258B, 2-(4-{4-Amino-2-[6-chloro-1-(2-fluorobenzyl)-1H-indazol-3-yl]-5-methyl-6-oxo-6,7-dihydro-5H-pyrrolo[2,3-d]pyrimidin-5-yl}phenyl)ethanesulfonic acid] showed an EC50 (sGC α1/β1 heterodimer) of 1730 nM and a Ki [1] of 0.08 nM.

`CC1(c2nc(C[C@@H](N)C(=O)O)co2)C(=O)Nc2nc(-c3nn(Cc4ccccc4F)c4cc(Cl)ccc34)nc(N)c21` (single isomer, unassigned) [Example 172A, 3-(2-{4-amino-2-[6-chloro-1-(2-fluorobenzyl)-1H-indazol-3-yl]-5-methyl-6-oxo-6,7-dihydro-5H-pyrrolo[2,3-d]pyrimidin-5-yl}-1,3-oxazol-4-yl)-D-alanine] gave an Emax (sGC α1/β1 heterodimer) of 92.7%, an EC50 (sGC α1/β1 heterodimer) of 1030 nM and a Ki [1] of 0.098 nM.
